From patent US12304912B2, “Fused bicyclic RAF inhibitors and methods for use thereof” (Jazz Pharmaceuticals Ireland Limited, priority 2020, dated 2025)
Like-named read-outs stand apart in the source and are kept apart here.

Key:
[1] = test system: constitutive ERK phosphorylation in HCT-116 cells; assay: HCT-116 AlphaLISA SureFire pERK1/2 cellular assay; assay type: cell-based, human; conditions: Homo sapiens, read-out: pERK HCT116 (2 hr) Abs pIC50 (converted)
Description: HCT-116 AlphaLISA SureFire pERK1/2 Cellular Assay […] […] Assay read outs took place 2 or 24 hours after dosing with compounds. On the first day, HCT-116 cells were harvested, resuspended in growth medium (McCoys5A with Glutamax (Life Technologies 36600021) and 10% heat-inactivated fetal bovine serum (Sigma F9665)), and counted. Cells were plated in 100 μl per well in each well of a 96-well culture dish (Sigma CLS3598) to a final density of 30,000 (2 hr read) or 15,000 (24 hr read) cells per well and incubated over night at 37° C. and 5% CO2. On day 2, the growth medium was exchanged for dosing medium (McCoys5A with Glutamax (Life Technologies 36600021) and 1% heat-inactivated fetal bovine serum (Sigma F9665)) and the cells were dosed with compounds to produce a 10-point dose response, where the top concentration was 1 μM and subsequent concentrations were at 1/3 log dilution intervals. A matched DMSO control was included. The cells were subsequently incubated for either 2 or 24 hours at 37° C. and 5% CO2. After incubation, media was removed and the cells were incubated with lysis buffer containing phosphatase inhibitors for 15 minutes at room temperature. Cell lysates were transferred to a 12 area 96 well white Optiplate™ (Perkin Elmer 6005569) and incubated with anti-mouse IgG acceptor beads, a biotinylated anti-ERK1/2 rabbit antibody recognizing both phosphorylated and non-phosphorylated ERK1/2, a mouse antibody targeted to the Thr202/Tyr204 epitope and recognizing phosphorylated ERK proteins only, and streptavidin-coated donor beads. The biotinylated antibody binds to the streptavidin-coated donor beads and the phopsho-ERK1/2 antibody binds to the acceptor beads. […] Both antibodies bound to phosphorylated ERK proteins, bringing the donor and acceptor beads into close proximity. All data were analyzed using the Dotmatics or GraphPad Prism software packages. Inhibition of ERK phosphorylation was assessed by determination of the absolute IC50 value, which is defined as the concentration of compound required to decrease the level of phosphorylated ERK proteins by 50% when compared to DMSO control.

[2] = test system: constitutive ERK phosphorylation in WiDr cells; assay: WiDr AlphaLISA SureFire pERK1/2 cellular assay; assay type: cell-based, human; conditions: Homo sapiens, read-out: pERK WiDr (2 hr) Abs pIC50 (converted)
Description: The human HCT-116 colorectal carcinoma cell line (ATCC CCL-247) endogenously expresses the KRAS^G13D mutation, which leads to constitutive activation of the MAP kinase pathway and phosphorylation of ERK. […] Assay read outs took place 2 or 24 hours after dosing with compounds. On the first day, HCT-116 cells were harvested, resuspended in growth medium (McCoys5A with Glutamax (Life Technologies 36600021) and 10% heat-inactivated fetal bovine serum (Sigma F9665)), and counted. Cells were plated in 100 μl per well in each well of a 96-well culture dish (Sigma CLS3598) to a final density of 30,000 (2 hr read) or 15,000 (24 hr read) cells per well and incubated over night at 37° C. and 5% CO2. On day 2, the growth medium was exchanged for dosing medium (McCoys5A with Glutamax (Life Technologies 36600021) and 1% heat-inactivated fetal bovine serum (Sigma F9665)) and the cells were dosed with compounds to produce a 10-point dose response, where the top concentration was 1 μM and subsequent concentrations were at 1/3 log dilution intervals. A matched DMSO control was included. The cells were subsequently incubated for either 2 or 24 hours at 37° C. and 5% CO2. After incubation, media was removed and the cells were incubated with lysis buffer containing phosphatase inhibitors for 15 minutes at room temperature. Cell lysates were transferred to a 12 area 96 well white Optiplate™ (Perkin Elmer 6005569) and incubated with anti-mouse IgG acceptor beads, a biotinylated anti-ERK1/2 rabbit antibody recognizing both phosphorylated and non-phosphorylated ERK1/2, a mouse antibody targeted to the Thr202/Tyr204 epitope and recognizing phosphorylated ERK proteins only, and streptavidin-coated donor beads. The biotinylated antibody binds to the streptavidin-coated donor beads and the phopsho-ERK1/2 antibody binds to the acceptor beads. Plates were read on an EnVision reader (Perkin Elmer) and excitation of the beads at 680 nm with a laser induced the release of singlet oxygen molecules from the donor beads that trigger energy transfer to the acceptor beads in close proximity, producing a signal that can be measured at […]. Both antibodies bound to phosphorylated ERK proteins, bringing the donor and acceptor beads into close proximity. All data were analyzed using the Dotmatics or GraphPad Prism software packages. Inhibition of ERK phosphorylation was assessed by determination of the absolute IC50 value, which is defined as the concentration of compound required to decrease the level of phosphorylated ERK proteins by 50% when compared to DMSO control.
WiDr AlphaLISA SureFire pERK1/2 Cellular Assay
The human WiDr colorectal adenocarcinoma cell line (ATCC CCL-218) endogenously expresses the BRAF^V600E mutation, which leads to constitutive activation of the MAP kinase pathway and phosphorylation of ERK. […] The main procedure is essentially the same as for HCT-116 cells (above), with the following adjustments to the growth medium (Eagle's Minimum Essential Medium (Sigma M2279) with 1× Glutamax (Life Technologies 35050038), 1× Sodium-Pyruvate (Sigma S8636), and 10% heat-inactivated fetal bovine serum (Sigma F9665)), the dosing medium (Eagle's Minimum Essential Medium (Sigma M2279) with 1× Glutamax (Life Technologies 35050038), 1× Sodium-Pyruvate (Sigma S8636), and 1% heat-inactivated fetal bovine serum (Sigma F9665)), and the seeding densities (2 hr: 50,000 cells per well; 24 hr: 35,000 cells per well). Moreover, the compounds were dosed in 1/2 log dilution intervals with the top concentration of 10 μM.

[3] = Microsomal stability assay, human liver microsomes (HLM); assay type: in vitro ADME; conditions: 0.5 mg/mL protein, 1 μM substrate
In short: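 Substrate depletion: 1 μM compound incubated at 37° C. with cryopreserved mouse or human liver microsomes at 0.5 mg·mL^−1 protein. Timed aliquots quenched in ice-cold organic solvent and measured by LC-MS/MS; t1/2 and CLint derived from the slope of ln % remaining versus time.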

[4] = HCT-116, HCT116 cells, 2 hr, Abs
[5] = HCT-116, HCT116 cells, 2 hr, absolute IC50
[6] = WiDr cells, 2 hr, absolute IC50

Compound | IC50 [1, 4] | IC50 ([2]; WiDr cells, 2 hr, Abs) | microsomal CLint at 1 μM ([3]; 37° C.) | also measured
O=C1CCc2c(Oc3ccc4c(c3)CC(c3nc(-c5cncc(C(F)F)c5)c[nH]3)CO4)ccnc2N1 (stereo not drawn) [Compound 105, 5-[3-[4-[5-(difluoromethyl)-3-pyridyl]-1H-imidazol-2-yl]chroman-6-yl]oxy-3,4-dihydro-1H-1,8-naphthyridin-2-one] | 0.178 µM | 0.269 µM | 24.8 µL/min/mg | 
O=C1CCc2c(Oc3ccc4c(c3)CC(c3nc5cc(Cl)ccc5[nH]3)CO4)ccnc2N1 (stereo not drawn) [Compound 25] |  |  |  | IC50 [1, 5]: 0.0851 µM; IC50 [2, 6]: 0.129 µM; microsomal CLint at 1 μM [3]: 50.1 µL/min/mg
O=C(Nc1cc(Oc2ccc3c(c2)CC(c2nc(-c4ccccc4)c[nH]2)CO3)ncn1)C1CC1 (stereo not drawn) [Compound 151, N-[6-[3-(4-phenyl-1H-imidazol-2-yl)chroman-6-yl]oxypyrimidin-4-yl]cyclopropanecarboxamide] |  |  | 18.3 µL/min/mg | IC50 ([1]; HCT-116, 2 h): 0.178 µM; IC50 ([2]; WiDr, 2 h): 0.224 µM
COc1csc(-c2c[nH]c(C3COc4ccc(Oc5ccnc6c5CCC(=O)N6)cc4C3)n2)c1 (stereo not drawn) [Compound 122, 5-[3-[5-(4-methoxy-2-thienyl)-1H-imidazol-2-yl]chroman-6-yl]oxy-3,4-dihydro-1H-1,8-naphthyridin-2-one] | 0.132 µM | 0.355 µM | 80.3 µL/min/mg | 
O=C(CN1CCCC1)Nc1cc(Oc2ccc3c(c2)CC(c2nc(-c4ccccc4)c[nH]2)CO3)ccn1 (stereo not drawn) [Compound 152] | 0.209 µM | 0.219 µM | 29 µL/min/mg | 
O=C(Nc1cc(Oc2ccc3c(c2)CC(c2nc(-c4ccccc4)c[nH]2)CO3)ccn1)C1CC(F)(F)C1 (stereo not drawn) [Compound 139] | 0.2 µM |  | 99.8 µL/min/mg | 
O=C(Cn1ccnc1)Nc1cc(Oc2ccc3c(c2)CC(c2nc(-c4ccccc4)c[nH]2)CO3)ccn1 (stereo not drawn) [Compound 144] | 0.0457 µM | 0.0955 µM | 27.1 µL/min/mg | 
Cc1ccc(-c2c[nH]c(C3COc4ccc(Oc5ccnc6c5CCC(=O)N6)cc4C3)n2)s1 (stereo not drawn) [Compound 110] | 0.0891 µM | 0.0708 µM | 48.3 µL/min/mg | 
O=C1CCc2c(Oc3ccc4c(c3)CC(c3nc(-c5ccc(C(F)(F)F)nc5)c[nH]3)CO4)ccnc2N1 (stereo not drawn) [Compound 127, 5-[3-[4-[6-(trifluoromethyl)-3-pyridyl]-1H-imidazol-2-yl]chroman-6-yl]oxy-3,4-dihydro-1H-1,8-naphthyridin-2-one] | 0.417 µM |  | 38.7 µL/min/mg | 
O=C1CCc2c(Oc3ccc4c(c3)CC(c3nc5cc(C(F)(F)F)ccc5[nH]3)CO4)ccnc2N1 (stereo not drawn) [Compound 22, 5-[3-[6-(trifluoromethyl)-1H-benzimidazol-2-yl]chroman-6-yl]oxy-3,4-dihydro-1H-1,8-naphthyridin-2-one] |  |  |  | IC50 [1, 5]: 0.141 µM; IC50 [2, 6]: 0.12 µM; microsomal CLint at 1 μM [3]: 35.9 µL/min/mg
O=C1CCc2c(Oc3ccc4c(c3)CC(c3nc5cc(F)c(F)cc5[nH]3)CO4)ccnc2N1 (stereo not drawn) [Compound 23] |  |  |  | IC50 [1, 5]: 0.316 µM; IC50 [2, 6]: 0.229 µM; microsomal CLint at 1 μM [3]: 29.9 µL/min/mg
Cn1ncc2ccc(-c3c[nH]c(C4COc5ccc(Oc6ccnc7c6CCC(=O)N7)cc5C4)n3)cc21 (stereo not drawn) [Compound 130, 5-[3-[4-(1-methylindazol-6-yl)-1H-imidazol-2-yl]chroman-6-yl]oxy-3,4-dihydro-1H-1,8-naphthyridin-2-one] | 0.141 µM | 0.603 µM | 23.6 µL/min/mg | 
O=C1CCc2c(Oc3ccc4c(c3)CC(c3nc(C5CCOCC5)c[nH]3)CO4)ccnc2N1 (stereo not drawn) [Compound 132, 5-[3-(4-tetrahydropyran-4-yl-1H-imidazol-2-yl)chroman-6-yl]oxy-3,4-dihydro-1H-1,8-naphthyridin-2-one] | 0.347 µM | 0.832 µM | 20.7 µL/min/mg | 
O=C1CCc2c(Oc3ccc4c(c3)CN(C(=O)Nc3ccc(C(F)(F)F)cc3)CC4)ccnc2N1 [Compound 47] |  |  |  | IC50 [1, 5]: 0.0692 µM; IC50 [2, 6]: 0.117 µM; microsomal CLint at 1 μM [3]: 24.5 µL/min/mg
CCn1nc(C)cc1-c1c[nH]c(C2COc3ccc(Oc4ccnc5c4CCC(=O)N5)cc3C2)n1 (stereo not drawn) [Compound 124, 5-[3-[4-(2-ethyl-5-methyl-pyrazol-3-yl)-1H-imidazol-2-yl]chroman-6-yl]oxy-3,4-dihydro-1H-1,8-naphthyridin-2-one] | 0.347 µM | 0.661 µM | 65.8 µL/min/mg | 
O=C(CN1CCOCC1)Nc1cc(Oc2ccc3c(c2)CC(c2nc(-c4ccccc4)c[nH]2)CO3)ccn1 (stereo not drawn) [Compound 149] | 0.316 µM | 0.933 µM | 63.7 µL/min/mg | 
CCc1cc(-c2c[nH]c(C3COc4ccc(Oc5ccnc6c5CCC(=O)N6)cc4C3)n2)n(C2CC2)n1 (stereo not drawn) [Compound 113, 5-[3-[4-(2-cyclopropyl-5-ethyl-pyrazol-3-yl)-1H-imidazol-2-yl]chroman-6-yl]oxy-3,4-dihydro-1H-1,8-naphthyridin-2-one] | > 1 µM | 1.48 µM | 82.1 µL/min/mg | 
Cn1nc(C2CC2)cc1-c1c[nH]c(C2COc3ccc(Oc4ccnc5c4CCC(=O)N5)cc3C2)n1 (stereo not drawn) [Compound 125, 5-[3-[4-(5-cyclopropyl-2-methyl-pyrazol-3-yl)-1H-imidazol-2-yl]chroman-6-yl]oxy-3,4-dihydro-1H-1,8-naphthyridin-2-one] | 0.355 µM | 0.977 µM |  | 
O=C1CCc2c(Oc3ccc4c(c3)CC(c3nc(-c5cccnc5C(F)(F)F)c[nH]3)CO4)ccnc2N1 (stereo not drawn) [Compound 128, 5-[3-[4-[2-(trifluoromethyl)-3-pyridyl]-1H-imidazol-2-yl]chroman-6-yl]oxy-3,4-dihydro-1H-1,8-naphthyridin-2-one] | 0.389 µM |  |  | 
O=C(Nc1cc(Oc2ccc3c(c2)CC(c2nc(-c4ccccc4)c[nH]2)CO3)ccn1)C1(F)CC1 (stereo not drawn) [Compound 138] | 0.275 µM |  | 134 µL/min/mg | 
